Assay results as given in US10806785B2, “Immunomodulator compounds and methods of use” (Incyte Corporation, priority 2016, dated 2020).

Biological target: PD-1/PD-L1 (Homo sapiens (Human), UniProt Q9NZQ7)
Assay: PD-1/PD-L1 binding assay (HTRF)
Experimental: The assays were conducted in a standard black 384-well polystyrene plate with a final volume of 20 μL. Inhibitors were first serially diluted in DMSO and then added to the plate wells before the addition of other reaction components. The final concentration of DMSO in the assay was 1%. The assays were carried out at 25° C. in the PBS buffer (pH 7.4) with 0.05% Tween-20 and 0.1% BSA. Recombinant human PD-L1 protein (19-238) with a His-tag at the C-terminus was purchased from AcroBiosystems (PD1-H5229). Recombinant human PD-1 protein (25-167) with Fc tag at the C-terminus was also purchased from AcroBiosystems (PD1-H5257). PD-L1 and PD-1 proteins were diluted in the assay buffer and 10 μL was added to the plate well. Plates were centrifuged and proteins were preincubated with inhibitors for 40 minutes. The incubation was followed by the addition of 10 μL of HTRF detection buffer supplemented with Europium cryptate-labeled anti-human IgG (PerkinElmer-AD0212) specific for Fc and anti-His antibody conjugated to SureLight®-Allophycocyanin (APC, PerkinElmer-AD0059H). After centrifugation, the plate was incubated at 25° C. for 60 min. before reading on a PHERAstar FS plate reader (665 nm/620 nm ratio). Final concentrations in the assay were […], 10 nM PD-L1, 1 nM europium anti-human IgG and 20 nM anti-His-Allophycocyanin. IC50 determination was performed by fitting the curve of percent control activity versus the log of the inhibitor concentration using the GraphPad Prism 5.0 software.

Chain of PD-1/PD-L1 (Q9NZQ7 19-238): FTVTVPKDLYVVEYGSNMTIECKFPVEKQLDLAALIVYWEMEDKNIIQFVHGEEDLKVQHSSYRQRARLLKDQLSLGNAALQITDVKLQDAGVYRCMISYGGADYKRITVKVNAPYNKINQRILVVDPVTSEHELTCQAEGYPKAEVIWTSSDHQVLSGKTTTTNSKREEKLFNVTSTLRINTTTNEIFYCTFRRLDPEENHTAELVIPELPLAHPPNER

Structure (SMILES)	IC50 [nM]
CN1CCc2c(nc(C(=O)Nc3cccc(-c4cccc(NC(=O)c5nc6c(n5C)CCN(C[C@H]5CC[C@H](C(=O)O)CC5)C6)c4Cl)c3C#N)n2C)C1 [Compound 149, trans-4-((2-((2-chloro-2′-cyano-3′-(1,5-dimethyl-4,5,6,7-tetrahydro-1H-imidazo[4,5-c]pyridine-2-carboxamido)-[1,1′-biphenyl]-3-yl)carbamoyl)-1-methyl-1,4,6,7-tetrahydro-5H-imidazo[4,5-c]pyridin-5-yl)methyl)cyclohexane-1-carboxylic acid]	≤ 10
CN1CCc2c(nc(C(=O)Nc3cccc(-c4cccc(NC(=O)c5nc6c(n5C)CCN(CC[C@H]5CC[C@H](C(=O)O)CC5)C6)c4Cl)c3C#N)n2C)C1 [Compound 150, trans-4-(2-(2-(2-chloro-2′-cyano-3′-(1,5-dimethyl-4,5,6,7-tetrahydro-1H-imidazo[4,5-c]pyridine-2-carboxamido)biphenyl-3-ylcarbamoyl)-1-methyl-6,7-dihydro-1H-imidazo[4,5-c]pyridin-5(4H)-yl)ethyl)cyclohexane-1-carboxylic acid]	≤ 10
CCN1CCc2c(nc(C(=O)Nc3cccc(-c4cccc(NC(=O)c5nc6c(n5C)CCN(CC[C@H]5CC[C@H](C(=O)O)CC5)C6)c4Cl)c3C#N)n2C)C1 [Compound 151, trans-4-(2-(2-((2-chloro-2′-cyano-3′-(5-ethyl-1-methyl-4,5,6,7-tetrahydro-1H-imidazo[4,5-c]pyridine-2-carboxamido)-[1,1′-biphenyl]-3-yl)carbamoyl)-1-methyl-1,4,6,7-tetrahydro-5H-imidazo[4,5-c]pyridin-5-yl)ethyl)cyclohexane-1-carboxylic acid]	≤ 10
CC(C)N1CCc2c(nc(C(=O)Nc3cccc(-c4cccc(NC(=O)c5nc6c(n5C)CCN(CC[C@H]5CC[C@H](C(=O)O)CC5)C6)c4Cl)c3C#N)n2C)C1 [Compound 152, trans-4-(2-(2-((2-chloro-2′-cyano-3′-(5-isopropyl-1-methyl-4,5,6,7-tetrahydro-1H-imidazo[4,5-c]pyridine-2-carboxamido)-[1,1′-biphenyl]-3-yl)carbamoyl)-1-methyl-1,4,6,7-tetrahydro-5H-imidazo[4,5-c]pyridin-5-yl)ethyl)cyclohexane-1-carboxylic acid]	≤ 10
Cn1c(C(=O)Nc2cccc(-c3cccc(NC(=O)c4nc5c(n4C)CCN(C4CCOCC4)C5)c3C#N)c2Cl)nc2c1CCN(CC[C@H]1CC[C@H](C(=O)O)CC1)C2 [Compound 153, trans-4-(2-(2-((2-chloro-2′-cyano-3′-(1-methyl-5-(tetrahydro-2H-pyran-4-yl)-4,5,6,7-tetrahydro-1H-imidazo[4,5-c]pyridine-2-carboxamido)-[1,1′-biphenyl]-3-yl)carbamoyl)-1-methyl-1,4,6,7-tetrahydro-5H-imidazo[4,5-c]pyridin-5-yl)ethyl)cyclohexane-1-carboxylic acid]	≤ 10
CCN1CCc2c(nc(C(=O)Nc3cccc(-c4cccc(NC(=O)c5nc6c(n5C)CCN(CC[C@H]5CC[C@H](C(=O)O)CC5)C6)c4C#N)c3Cl)n2C)C1 [Compound 154, trans-4-(2-(2-((2′-chloro-2-cyano-3′-(5-ethyl-1-methyl-4,5,6,7-tetrahydro-1H-imidazo[4,5-c]pyridine-2-carboxamido)-[1,1′-biphenyl]-3-yl)carbamoyl)-1-methyl-1,4,6,7-tetrahydro-5H-imidazo[4,5-c]pyridin-5-yl)ethyl)cyclohexane-1-carboxylic acid]	≤ 10
CC(C)N1CCc2c(nc(C(=O)Nc3cccc(-c4cccc(NC(=O)c5nc6c(n5C)CCN(CC[C@H]5CC[C@H](C(=O)O)CC5)C6)c4C#N)c3Cl)n2C)C1 [Compound 155, trans-4-(2-(2-((2′-chloro-2-cyano-3′-(5-isopropyl-1-methyl-4,5,6,7-tetrahydro-1H-imidazo[4,5-c]pyridine-2-carboxamido)-[1,1′-biphenyl]-3-yl)carbamoyl)-1-methyl-1,4,6,7-tetrahydro-5H-imidazo[4,5-c]pyridin-5-yl)ethyl)cyclohexane-1-carboxylic acid]	≤ 10
CCN1CCc2c(nc(C(=O)Nc3cccc(-c4cccc(NC(=O)c5nc6c(n5C)CCN(C[C@H]5CC[C@H](C(=O)O)CC5)C6)c4C#N)c3Cl)n2C)C1 [Compound 156, trans-4-((2-((2′-chloro-2-cyano-3′-(5-ethyl-1-methyl-4,5,6,7-tetrahydro-1H-imidazo[4,5-c]pyridine-2-carboxamido)-[1,1′-biphenyl]-3-yl)carbamoyl)-1-methyl-1,4,6,7-tetrahydro-5H-imidazo[4,5-c]pyridin-5-yl)methyl)cyclohexane-1-carboxylic acid]	≤ 10
Cn1c(C(=O)Nc2cccc(-c3cccc(NC(=O)c4nc5c(n4C)CCN(C[C@H]4CC[C@H](C(=O)O)CC4)C5)c3C#N)c2Cl)nc2c1CCN(C1CCOCC1)C2 [Compound 157, trans-4-((2-((2′-chloro-2-cyano-3′-(1-methyl-5-(tetrahydro-2H-pyran-4-yl)-4,5,6,7-tetrahydro-1H-imidazo[4,5-c]pyridine-2-carboxamido)-[1,1′-biphenyl]-3-yl)carbamoyl)-1-methyl-1,4,6,7-tetrahydro-5H-imidazo[4,5-c]pyridin-5-yl)methyl)cyclohexane-1-carboxylic acid]	≤ 10
Cc1c(-c2nc3c(s2)CN(C(=O)CN(C)C(C)C)C3)cccc1-c1cccc(NC(=O)c2nc3c(n2C)CCN(C[C@H]2CC[C@H](C(=O)O)CC2)C3)c1Cl [Compound 158, trans-4-((2-(2-chloro-3′-(5-(2-(isopropyl(methyl)amino)acetyl)-5,6-dihydro-4H-pyrrolo[3,4-d]thiazol-2-yl)-2′-methylbiphenyl-3-ylcarbamoyl)-1-methyl-6,7-dihydro-1H-imidazo[4,5-c]pyridin-5(4H)-yl)methyl)cyclohexane-1-carboxylic acid]	≤ 10
Cc1c(-c2nc3c(o2)CN(C(=O)CN2CC[C@](C)(C(=O)O)C2)C3)cccc1-c1cccc(NC(=O)c2nc3c(n2C)CCN(C)C3)c1Cl [Compound 163, (S)-1-(2-(2-(2′-chloro-3′-(1,5-dimethyl-4,5,6,7-tetrahydro-1H-imidazo[4,5-c]pyridine-2-carboxamido)-2-methyl-[1,1′-biphenyl]-3-yl)-4,6-dihydro-5H-pyrrolo[3,4-d]oxazol-5-yl)-2-oxoethyl)-3-methylpyrrolidine-3-carboxylic acid]	≤ 10
Cc1c(-c2nc3c(o2)CN(C(=O)CN[C@@H](C)CO)C3)cccc1-c1cccc(NC(=O)c2nc3c(n2C)CCN(C)C3)c1Cl [Compound 164, (S)—N-(2-chloro-3′-(5-((S)-(1-hydroxypropan-2-yl)glycyl)-5,6-dihydro-4H-pyrrolo[3,4-d]oxazol-2-yl)-2′-methyl-[1,1′-biphenyl]-3-yl)-1,5-dimethyl-4,5,6,7-tetrahydro-1H-imidazo[4,5-c]pyridine-2-carboxamide]	≤ 10
Cc1c(-c2nc3c(o2)CN(C(=O)CN[C@H]2C[C@@H](O)C2)C3)cccc1-c1cccc(NC(=O)c2nc3c(n2C)CCN(C)C3)c1Cl [Compound 165, N-(2-chloro-3′-(5-((cis-3-hydroxycyclobutyl)glycyl)-5,6-dihydro-4H-pyrrolo[3,4-d]oxazol-2-yl)-2′-methyl-[1,1′-biphenyl]-3-yl)-1,5-dimethyl-4,5,6,7-tetrahydro-1H-imidazo[4,5-c]pyridine-2-carboxamide]	≤ 10
Cc1c(-c2nc3c(o2)CN(C(=O)CN[C@H]2C[C@H](O)C2)C3)cccc1-c1cccc(NC(=O)c2nc3c(n2C)CCN(C)C3)c1Cl [Compound 166, N-(2-chloro-3′-(5-((trans-3-hydroxycyclobutyl)glycyl)-5,6-dihydro-4H-pyrrolo[3,4-d]oxazol-2-yl)-2′-methyl-[1,1′-biphenyl]-3-yl)-1,5-dimethyl-4,5,6,7-tetrahydro-1H-imidazo[4,5-c]pyridine-2-carboxamide]	≤ 10
Cc1c(-c2nc3c(o2)CN(C(=O)CN2CCC(C(=O)O)CC2)C3)cccc1-c1cccc(NC(=O)c2nc3c(n2C)CCN(C)C3)c1Cl [Compound 167, 1-(2-(2-(2′-chloro-3′-(1,5-dimethyl-4,5,6,7-tetrahydro-1H-imidazo[4,5-c]pyridine-2-carboxamido)-2-methyl-[1,1′-biphenyl]-3-yl)-4,6-dihydro-5H-pyrrolo[3,4-d]oxazol-5-yl)-2-oxoethyl)piperidine-4-carboxylic acid]	≤ 10
Cc1c(-c2nc3c(o2)CN(C(=O)CN(C)C)C3)cccc1-c1cccc(NC(=O)c2nc3c(n2C)CCN(C2CCC(C)(C(=O)O)CC2)C3)c1Cl (centres unmarked) [Compound 168, 4-(2-((2-chloro-3′-(5-(dimethylglycyl)-5,6-dihydro-4H-pyrrolo[3,4-d]oxazol-2-yl)-2′-methyl-[1,1′-biphenyl]-3-yl)carbamoyl)-1-methyl-1,4,6,7-tetrahydro-5H-imidazo[4,5-c]pyridin-5-yl)-1-methylcyclohexane-1-carboxylic acid]	≤ 10
CCN(C)CC(=O)N1Cc2nc(-c3cccc(-c4cccc(NC(=O)c5nc6c(n5C)CCN(CCC5CCC(C(=O)O)CC5)C6)c4Cl)c3Cl)oc2C1 (centres unmarked) [Compound 169, 4-(2-(2-((2,2′-dichloro-3′-(5-(N-ethyl-N-methylglycyl)-5,6-dihydro-4H-pyrrolo[3,4-d]oxazol-2-yl)-[1,1′-biphenyl]-3-yl)carbamoyl)-1-methyl-1,4,6,7-tetrahydro-5H-imidazo[4,5-c]pyridin-5-yl)ethyl)cyclohexane-1-carboxylic acid]	≤ 10
